Test results published in ChEMBL document CHEMBL5030562, “Synthesis and antiviral evaluation of cytisine derivatives against dengue virus types 1 and 2” (Bioorg Med Chem Lett, 2021).
pIC50: −log10 of the molar value. Calls of active or inactive are those of the source. No cut-off for these calls is given here.

System: dengue virus type 1
Test: Antiviral activity against DENV1 infected in African green monkey Vero E6 cells assessed as reduction in induced cytopathic effect at 10 uM after 96 hrs by immunofluorescent staining based inverted microscopic analysis
Format: functional, organism-based
Conditions: not given

SMILES | Activity
C=CCNC(=S)N1C[C@H]2C[C@@H](C1)c1cccc(=O)n1C2 | Active

System: dengue virus type 2
Test: Antiviral activity against Dengue virus 2 infected in African green monkey Vero E6 cells assessed as inhibition of viral replication at post entry stage measured after 96 hrs by DAPI staining based fluorescence microscopic analysis
Format: functional, organism-based
Conditions: Vero C1008, 96 h

SMILES | pIC50
C=CCNC(=S)N1C[C@H]2C[C@@H](C1)c1cccc(=O)n1C2 | 5.12

System: A549
Test: Cytotoxicity against human A549 cells assessed as reduction in cell viability by MTT assay
Format: functional
Conditions: not given

SMILES | CC50 [µM]
O=c1ccc(Cl)c2n1C[C@@H]1C[C@H]2CN(C(=S)Nc2ccccc2)C1 | > 50
O=c1cccc2n1C[C@@H]1C[C@H]2CN(C(=S)Nc2ccccc2)C1 | > 50
Cn1cc(CNc2ccc3n(c2=O)C[C@@H]2C[C@H]3CN(Cc3ccccc3)C2)c(=O)n(C)c1=O (single isomer, unassigned) | > 50
CN1C[C@H]2C[C@@H](C1)c1ccc(NC/C=C/c3ccccc3)c(=O)n1C2 | > 50
C=CCNC(=S)N1C[C@H]2C[C@@H](C1)c1cccc(=O)n1C2 | > 50

System: dengue virus type 1
Test: Selectivity index, ratio of CC50 for cytotoxicity in African green monkey Vero E6 cells to IC50 for Antiviral activity against DENV1 infected in African green monkey Vero E6 cells
Format: functional, Vero C1008
Conditions: not given

SMILES | Ratio CC50/IC50
C=CCNC(=S)N1C[C@H]2C[C@@H](C1)c1cccc(=O)n1C2 | >357.1

System: dengue virus type 2
Test: Antiviral activity against DENV2 infected in African green monkey Vero E6 cells assessed as inhibition of virus induced cytopathic effect measured after 96 hrs by immunofluorescent staining based inverted microscopic analysis
Format: functional, organism-based
Conditions: Vero C1008, 96 h

SMILES | pIC50
C=CCNC(=S)N1C[C@H]2C[C@@H](C1)c1cccc(=O)n1C2 | > 7.00

System: not listed separately
Test: Selectivity index, ratio of CC50 for cytotoxicity in human A549 cells to IC50 for Antiviral activity against DENV2 infected in African green monkey Vero E6 cells
Format: toxicity, cell-based
Conditions: not given

SMILES | selectivity ratio
C=CCNC(=S)N1C[C@H]2C[C@@H](C1)c1cccc(=O)n1C2 | > 500

System: dengue virus type 2
Test: Antiviral activity against DENV2 infected in African green monkey Vero E6 cells assessed as inhibition of virus induced cytopathic effect at 10 uM measured after 96 hrs by immunofluorescent staining based inverted microscopic analysis relative to control
Format: functional
Conditions: Vero C1008

SMILES | inhibition at 10 µM [%]
O=c1ccc(Cl)c2n1C[C@@H]1C[C@H]2CN(C(=S)Nc2ccccc2)C1 | 11.2
O=c1cccc2n1C[C@@H]1C[C@H]2CN(C(=S)Nc2ccccc2)C1 | 59.4
Cn1cc(CNc2ccc3n(c2=O)C[C@@H]2C[C@H]3CN(Cc3ccccc3)C2)c(=O)n(C)c1=O (single isomer, unassigned) | 58.8
CN1C[C@H]2C[C@@H](C1)c1ccc(NC/C=C/c3ccccc3)c(=O)n1C2 | 3.2
C=CCNC(=S)N1C[C@H]2C[C@@H](C1)c1cccc(=O)n1C2 | 86.4

System: dengue virus type 2
Test: Antiviral activity against DENV2 infected in human A549 cells assessed as inhibition of virus induced cytopathic effect measured after 96 hrs by immunofluorescent staining based inverted microscopic analysis
Format: functional, organism-based
Conditions: A549, 96 h

SMILES | pIC50
C=CCNC(=S)N1C[C@H]2C[C@@H](C1)c1cccc(=O)n1C2 | > 7.00

System: Influenza A virus
Test: Antiviral activity against Influenza A virus
Format: functional, organism-based
Conditions: not given

SMILES | pIC50
C=CCNC(=S)N1C[C@H]2C[C@@H](C1)c1cccc(=O)n1C2 | < 5.52

System: Human respirovirus 3
Test: Antiviral activity against Parainfluenza virus type 3
Format: functional, organism-based
Conditions: not given

SMILES | pIC50
C=CCNC(=S)N1C[C@H]2C[C@@H](C1)c1cccc(=O)n1C2 | < 5.52

System: dengue virus type 2
Test: Antiviral activity against DENV2 infected in African green monkey Vero E6 cells assessed as reduction in induced cytopathic effect at 10 uM after 96 hrs by immunofluorescent staining based inverted microscopic analysis
Format: functional, organism-based
Conditions: not given

SMILES | Activity
O=c1ccc(Cl)c2n1C[C@@H]1C[C@H]2CN(C(=S)Nc2ccccc2)C1 | Active
O=c1cccc2n1C[C@@H]1C[C@H]2CN(C(=S)Nc2ccccc2)C1 | Active
Cn1cc(CNc2ccc3n(c2=O)C[C@@H]2C[C@H]3CN(Cc3ccccc3)C2)c(=O)n(C)c1=O (single isomer, unassigned) | Active
CN1C[C@H]2C[C@@H](C1)c1ccc(NC/C=C/c3ccccc3)c(=O)n1C2 | Active
C=CCNC(=S)N1C[C@H]2C[C@@H](C1)c1cccc(=O)n1C2 | Active

System: dengue virus type 2
Test: Antiviral activity against Dengue virus 2 infected in African green monkey Vero E6 cells assessed as inhibition of viral replication at attachment stage measured after 96 hrs by DAPI staining based fluorescence microscopic analysis
Format: functional, organism-based
Conditions: Vero C1008, 96 h

SMILES | pIC50
C=CCNC(=S)N1C[C@H]2C[C@@H](C1)c1cccc(=O)n1C2 | 6.50

System: not listed separately
Test: Cytotoxicity against African green monkey Vero E6 cells assessed as reduction in cell viability by MTT assay
Format: cell-based, Vero C1008
Conditions: chlorocebus sabaeus

SMILES | CC50 [µM]
O=c1ccc(Cl)c2n1C[C@@H]1C[C@H]2CN(C(=S)Nc2ccccc2)C1 | > 50
O=c1cccc2n1C[C@@H]1C[C@H]2CN(C(=S)Nc2ccccc2)C1 | > 50
Cn1cc(CNc2ccc3n(c2=O)C[C@@H]2C[C@H]3CN(Cc3ccccc3)C2)c(=O)n(C)c1=O (single isomer, unassigned) | > 50
CN1C[C@H]2C[C@@H](C1)c1ccc(NC/C=C/c3ccccc3)c(=O)n1C2 | > 50
C=CCNC(=S)N1C[C@H]2C[C@@H](C1)c1cccc(=O)n1C2 | > 50

System: Hepatitis B virus
Test: Antiviral activity against Hepatitis B virus
Format: functional, organism-based
Conditions: not given

SMILES | pIC50
C=CCNC(=S)N1C[C@H]2C[C@@H](C1)c1cccc(=O)n1C2 | < 5.52

System: dengue virus type 1
Test: Antiviral activity against DENV1 infected in African green monkey Vero E6 cell assessed as inhibition of virus induced cytopathic effect at 10 uM measured after 96 hrs by immunofluorescent staining based inverted microscopic analysis relative to control
Format: functional
Conditions: Vero C1008

SMILES | inhibition at 10 µM [%]
C=CCNC(=S)N1C[C@H]2C[C@@H](C1)c1cccc(=O)n1C2 | 81.2

System: dengue virus type 2
Test: Antiviral activity against Dengue virus 2 infected in African green monkey Vero E6 cells assessed as inhibition of viral replication at entry stage measured after 96 hrs by DAPI staining based fluorescence microscopic analysis
Format: functional, organism-based
Conditions: Vero C1008, 96 h

SMILES | pIC50
C=CCNC(=S)N1C[C@H]2C[C@@H](C1)c1cccc(=O)n1C2 | > 7.00

System: not listed separately
Test: Selectivity index, ratio of CC50 for cytotoxicity in African green monkey Vero E6 cells to IC50 for Antiviral activity against DENV2 infected in African green monkey Vero E6 cells
Format: toxicity, cell-based, Vero C1008
Conditions: read-out: Ratio CC50/IC50

SMILES | selectivity ratio
C=CCNC(=S)N1C[C@H]2C[C@@H](C1)c1cccc(=O)n1C2 | > 500

System: dengue virus type 1
Test: Antiviral activity against DENV1 infected in African green monkey Vero E6 cells assessed as inhibition of virus induced cytopathic effect measured after 96 hrs by immunofluorescent staining based inverted microscopic analysis
Format: functional, organism-based
Conditions: Vero C1008, 96 h

SMILES | pIC50
C=CCNC(=S)N1C[C@H]2C[C@@H](C1)c1cccc(=O)n1C2 | 6.85
